Results on two molecules are retold here after PMC10962963 (Proceedings of the National Academy of Sciences of the …, 2024).

The target of series [1] is T1, polycystin-2 (PC2, TRPP2), PC2_F604P (Homo sapiens, UniProt Q13563, F604P).
T1 sequence (Q13563 185-719 F604P): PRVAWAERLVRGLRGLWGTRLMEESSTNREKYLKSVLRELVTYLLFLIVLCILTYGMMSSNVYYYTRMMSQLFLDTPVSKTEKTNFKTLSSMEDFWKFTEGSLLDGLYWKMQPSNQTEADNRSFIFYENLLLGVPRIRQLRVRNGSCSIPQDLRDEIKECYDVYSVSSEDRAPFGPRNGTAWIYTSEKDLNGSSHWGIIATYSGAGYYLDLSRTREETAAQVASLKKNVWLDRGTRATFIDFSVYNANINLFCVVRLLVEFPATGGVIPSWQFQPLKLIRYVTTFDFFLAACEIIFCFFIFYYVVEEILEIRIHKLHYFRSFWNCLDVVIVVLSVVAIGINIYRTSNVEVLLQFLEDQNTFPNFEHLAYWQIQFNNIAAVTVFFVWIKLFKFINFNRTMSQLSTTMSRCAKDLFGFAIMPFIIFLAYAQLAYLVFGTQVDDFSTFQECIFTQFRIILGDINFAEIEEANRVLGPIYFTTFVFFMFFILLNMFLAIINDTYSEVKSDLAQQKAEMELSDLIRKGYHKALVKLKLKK
The series is described as follows: cryo-EM structure. The series is classed as cell-based.

Series [2] concerns the molecule itself. The series is described as follows: cryo-EM structure.

On to `CC1CC(C)(C)N(C(=O)CN2C(=O)c3ccccc3C2=O)c2ccccc21` (centres unmarked) [ML-SA1], for which the concentration giving a half-maximal response (EC50) in series [1] worked out at 5.2 µM. That is a single-digit micromolar value.

B1: truncated PC2_F604P protein containing the fragment Pro185-Lys719 (domain or fragment, human, UniProt Q13563 185-719, looked up)
chain: PRVAWAERLVRGLRGLWGTRLMEESSTNREKYLKSVLRELVTYLLFLIVLCILTYGMMSSNVYYYTRMMSQLFLDTPVSKTEKTNFKTLSSMEDFWKFTEGSLLDGLYWKMQPSNQTEADNRSFIFYENLLLGVPRIRQLRVRNGSCSIPQDLRDEIKECYDVYSVSSEDRAPFGPRNGTAWIYTSEKDLNGSSHWGIIATYSGAGYYLDLSRTREETAAQVASLKKNVWLDRGTRATFIDFSVYNANINLFCVVRLLVEFPATGGVIPSWQFQPLKLIRYVTTFDFFLAACEIIFCFFIFYYVVEEILEIRIHKLHYFRSFWNCLDVVIVVLSVVAIGINIYRTSNVEVLLQFLEDQNTFPNFEHLAYWQIQFNNIAAVTVFFVWIKLFKFINFNRTMSQLSTTMSRCAKDLFGFAIMPFIIFLAYAQLAYLVFGTQVDDFSTFQECIFTQFRIILGDINFAEIEEANRVLGPIYFTTFVFFMFFILLNMFLAIINDTYSEVKSDLAQQKAEMELSDLIRKGYHKALVKLKLKK
For the molecule B1, the binding result in series [2] is on record as “binds”.

By EC50 is commonly meant the concentration giving half of the maximal effect. A low value points to an effect from little substance.
